Measured values taken from ChEMBL document CHEMBL1146650, “1,7-annulated indolocarbazoles as cyclin-dependent kinase inhibitors” (Bioorg Med Chem Lett, 2004).

Key:
HCT-116 = experiment: Cytotoxic activity against human colon HCT116 cell line; type: functional, cell-based
[1] = target: Cyclin-dependent kinase 4/cyclin D1 (Homo sapiens, UniProt P11802); experiment: Inhibitory activity against human Cyclin D1-cyclin-dependent kinase 4 activity; type: protein-complex assay
[2] = target: Cyclin-dependent kinase 2/cyclin E (Homo sapiens, UniProt P24941); experiment: Inhibition of human Cyclin E-cyclin-dependent kinase 2; type: protein-complex assay
[3] = target: Cyclin-dependent kinase 2 (Homo sapiens, UniProt P24941); experiment: Inhibition of Cyclin-dependent kinase 2
[4] = target: Cyclin-dependent kinase 4 (Homo sapiens, UniProt P11802); experiment: Inhibition of Cyclin-dependent kinase 4
Sequence of Cyclin-dependent kinase 4 (P11802 whole entry): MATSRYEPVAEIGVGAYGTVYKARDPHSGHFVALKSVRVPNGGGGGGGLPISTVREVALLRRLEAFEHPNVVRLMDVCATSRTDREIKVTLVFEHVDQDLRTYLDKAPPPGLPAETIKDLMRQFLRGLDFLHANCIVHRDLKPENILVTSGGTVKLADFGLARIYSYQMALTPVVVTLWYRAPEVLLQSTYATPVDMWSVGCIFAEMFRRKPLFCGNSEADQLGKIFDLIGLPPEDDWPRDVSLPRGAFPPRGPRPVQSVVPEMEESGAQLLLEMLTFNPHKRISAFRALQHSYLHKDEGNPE

Sequence of Cyclin-dependent kinase 4/cyclin D1 (P11802 whole entry): as above
Sequence of Cyclin-dependent kinase 4/cyclin D1 (P24385 whole entry, further chain): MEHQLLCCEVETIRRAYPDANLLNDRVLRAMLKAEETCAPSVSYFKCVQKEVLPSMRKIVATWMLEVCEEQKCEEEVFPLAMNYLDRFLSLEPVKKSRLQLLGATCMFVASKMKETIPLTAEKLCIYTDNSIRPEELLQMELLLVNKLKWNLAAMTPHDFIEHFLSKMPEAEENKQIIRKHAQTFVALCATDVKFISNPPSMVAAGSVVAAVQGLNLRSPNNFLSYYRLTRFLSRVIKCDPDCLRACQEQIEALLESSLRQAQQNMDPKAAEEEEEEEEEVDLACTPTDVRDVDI

## O=C1NC(=O)c2c1c1c3ccc(CO)cc3[nH]c1c1c2c2cccc3c2n1CCC3
HCT-116
  IC50: 340 nM
[1]
  IC50: 52 nM

## O=C1NC(=O)c2c1c1c3ccc(CN4CCCC4)cc3[nH]c1c1c2c2cccc3c2n1CCC3
HCT-116
  IC50: 170 nM
[1]
  IC50: 50 nM

## COC(=O)c1ccc2c(c1)[nH]c1c2c2c(c3c4cccc5c4n(c13)CCC5)C(=O)NC2=O
[1]
  IC50: > 2000 nM

## O=C1NC(=O)c2c1c1c3ccc(-c4ccncc4)cc3[nH]c1c1c2c2cccc3c2n1CCC3
HCT-116
  IC50: 3290 nM
[1]
  IC50: 590 nM

## O=C1NC(=O)c2c1c1c3ccc(Cl)cc3[nH]c1c1c2c2cccc3c2n1CCC3
HCT-116
  IC50: 780 nM
[1]
  IC50: 110 nM
[2]
  IC50: > 200 nM

## O=C1NC(=O)c2c1c1c3cc(F)ccc3[nH]c1c1c2c2cccc3c2n1CCC3
[1]
  IC50: > 2000 nM

## O=C1NC(=O)c2c1c1c3ccc(CN4CCSCC4)cc3[nH]c1c1c2c2cccc3c2n1CCC3
HCT-116
  IC50: 600 nM
[1]
  IC50: 90 nM

## O=C1NC(=O)c2c1c1c3cc(F)c(F)cc3[nH]c1c1c2c2cccc3c2n1CCC3
[1]
  IC50: > 2000 nM

## O=C1NC(=O)c2c1c1c3cc(Br)ccc3[nH]c1c1c2c2cccc3c2n1CCC3
[1]
  IC50: > 2000 nM

## O=C1NC(=O)c2c1c1c3ccc(CN4CCCCC4)cc3[nH]c1c1c2c2cccc3c2n1CCC3
HCT-116
  IC50: 320 nM
[1]
  IC50: 87 nM

## O=C1NC(=O)c2c1c1c([nH]c3cccc(F)c31)c1c2c2cccc3c2n1CCC3
[1]
  IC50: > 2000 nM

## O=C1NC(=O)c2c1c1c3ccc(Br)cc3[nH]c1c1c2c2cccc3c2n1CCC3
HCT-116
  IC50: 2300 nM
[1]
  IC50: 90 nM
[2]
  IC50: 1000 nM

## O=C1NC(=O)c2c1c1c3ccc(F)cc3[nH]c1c1c2c2cccc3c2n1CCC3
HCT-116
  IC50: 2370 nM
[1]
  IC50: 420 nM
[2]
  IC50: > 200 nM

## O=C1NC(=O)c2c1c1c3ccc(CN4CCOCC4)cc3[nH]c1c1c2c2cccc3c2n1CCC3
HCT-116
  IC50: 370 nM
[1]
  IC50: 75 nM

## O=C1NC(=O)c2c1c1c3ccccc3n3c1c1c2c2ccccc2n1[C@H]1CC[C@@H]3O1
[3]
  IC50: 540 nM
[4]
  IC50: 680 nM

## O=C1NC(=O)c2c1c1c3ccccc3[nH]c1c1c2c2cccc3c2n1CCCC3
HCT-116
  IC50: 5160 nM
[1]
  IC50: 94 nM
[2]
  IC50: 1000 nM

## O=C1NC(=O)c2c1c1c3ccccc3[nH]c1c1c2c2cccc3c2n1CC3
HCT-116
  IC50: 1020 nM
[1]
  IC50: 240 nM
[2]
  IC50: > 2000 nM

## O=C1NC(=O)c2c1c1c3ccccc3[nH]c1c1c2c2cccc3c2n1CCCCC3
HCT-116
  IC50: 1250 nM
[1]
  IC50: 120 nM
[2]
  IC50: > 2000 nM

## O=C1NC(=O)c2c1c1c3ccc(CN4CCC4)cc3[nH]c1c1c2c2cccc3c2n1CCC3
HCT-116
  IC50: 230 nM
[1]
  IC50: 75 nM

## COC(=O)c1ccc2[nH]c3c(c4c(c5c6cccc7c6n(c35)CCC7)C(=O)NC4=O)c2c1
[1]
  IC50: > 2000 nM

## O=C1NC(=O)c2c1c1c3ccc(CN4CCNCC4)cc3[nH]c1c1c2c2cccc3c2n1CCC3
HCT-116
  IC50: > 10000 nM
[1]
  IC50: 65 nM

## O=C1NC(=O)c2c1c1c3ccc(-c4cccnc4)cc3[nH]c1c1c2c2cccc3c2n1CCC3
HCT-116
  IC50: 1130 nM
[1]
  IC50: 160 nM

## O=C1NC(=O)c2c1c1c3ccc(C(F)(F)F)cc3[nH]c1c1c2c2cccc3c2n1CCC3
HCT-116
  IC50: 1480 nM
[1]
  IC50: 290 nM
[2]
  IC50: > 2000 nM

## O=C1NC(=O)c2c1c1c3ccccc3[nH]c1c1c2c2cccc3c2n1CCC3
HCT-116
  IC50: 1600 nM
[1]
  IC50: 110 nM
[2]
  IC50: > 1000 nM

## O=C1NC(=O)c2c1c1c3ccc(CN4CCCNCC4)cc3[nH]c1c1c2c2cccc3c2n1CCC3
HCT-116
  IC50: 7600 nM
[1]
  IC50: 79 nM

## NCc1ccc2c(c1)[nH]c1c2c2c(c3c4cccc5c4n(c13)CCC5)C(=O)NC2=O
HCT-116
  IC50: 2260 nM
[1]
  IC50: 170 nM
